Target: Plasminogen activator inhibitor 1 (Homo sapiens, UniProt P05121)
Experiment: Inhibitory concentration required against Plasminogen activator inhibitor 1.

Plasminogen activator inhibitor 1, sequence (P05121 whole entry): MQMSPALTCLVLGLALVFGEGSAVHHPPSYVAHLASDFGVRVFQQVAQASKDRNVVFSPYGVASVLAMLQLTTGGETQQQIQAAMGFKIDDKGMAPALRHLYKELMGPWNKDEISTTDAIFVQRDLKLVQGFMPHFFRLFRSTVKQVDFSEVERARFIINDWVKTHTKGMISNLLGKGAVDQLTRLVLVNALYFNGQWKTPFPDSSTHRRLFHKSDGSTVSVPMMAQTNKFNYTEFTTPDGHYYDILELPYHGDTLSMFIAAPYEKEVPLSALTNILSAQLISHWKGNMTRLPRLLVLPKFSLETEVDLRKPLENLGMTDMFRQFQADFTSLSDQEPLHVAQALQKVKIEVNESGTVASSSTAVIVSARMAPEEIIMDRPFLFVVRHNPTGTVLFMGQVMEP

IC50	SMILES
1 µM	O=c1[nH]/c(=C\c2ccc(OCCCc3cccnc3)cc2)c(=O)[nH]/c1=C\c1ccccc1
1 µM	O=C(Nc1ccc(Oc2ccc(OC(F)(F)F)cc2)cc1)c1[nH]c(=O)c2ccccc2c1O
18 µM	O=C1N/C(=C\c2ccc(OCCCc3cccnc3)cc2)C(=O)c2ccccc21
12 µM	Cn1c(=O)/c(=C/c2ccc(OCCCc3cccnc3)cc2)[nH]c(=O)/c1=C/c1ccccc1
0.3 µM	O=c1[nH]/c(=C\c2ccccn2)c(=O)[nH]/c1=C\c1ccc(OCCCc2cccnc2)cc1
0.6 µM	O=c1[nH]/c(=C\c2nccs2)c(=O)[nH]/c1=C\c1ccc(OCCCc2cccnc2)cc1
8.6 µM	O=C(Nc1ccc(/C=C2\NC(=O)c3ccccc3C2=O)cc1)c1ccccc1
4 µM	O=C(Nc1ccc(/C=C2\NC(=O)c3ccccc3C2=O)cc1)c1cccs1
1.9 µM	O=C(Nc1ccc(/C=C2\NC(=O)c3ccccc3C2=O)cc1)c1ccco1
> 50 µM	O=c1[nH]/c(=C\c2ccc(OCCCc3cccnc3)cn2)c(=O)[nH]/c1=C\c1ccccc1

Further lines, the molecule ahead of its results:

SMILES	IC50
O=C(Nc1ccc(Cl)cc1)c1nc(O)c2ccccc2c1O	24 µM
O=c1[nH]c(-c2ccc(F)cc2)c(O)c2ccccc12	39.5 µM
O=C(Nc1cc(C(F)(F)F)cc(C(F)(F)F)c1)c1nc(O)c2ccccc2c1O	13.7 µM
Oc1nc(-c2ccc(Cl)cc2)c(O)c2ccccc12	23.6 µM
Oc1nc(-c2ccccc2)c(O)c2ccccc12	50 µM
O=C(Nc1ccc(Cl)c(Cl)c1)c1nc(O)c2ccccc2c1O	14 µM
COc1cccc(-c2[nH]c(=O)c3ccccc3c2O)c1	9.8 µM
